Data published in patent US20120259007A1, “ANTICOAGULANT COMPOUNDS AND THEIR USE” (HAOMA MEDICA LIMITED, priority 2009, published 2012).

Experiments:
[1] = molecular target: T1, recombinant human γ-carboxylase (Homo sapiens, UniProt P38435); test: Inhibition of recombinant human gamma-carboxylase (14CO2 incorporation, microsomes from High Five cells); assay type: biochemical; conditions: in the presence of 220 μM vitamin K1 hydroquinone; compounds reduced to hydroquinone forms; n=1; read-out: IC50 against 220 μM vitamin K1
T1 construct: made in house; host or cells: Trichoplusia ni High Five cells (microsomes)
T1 sequence (P38435 1-758): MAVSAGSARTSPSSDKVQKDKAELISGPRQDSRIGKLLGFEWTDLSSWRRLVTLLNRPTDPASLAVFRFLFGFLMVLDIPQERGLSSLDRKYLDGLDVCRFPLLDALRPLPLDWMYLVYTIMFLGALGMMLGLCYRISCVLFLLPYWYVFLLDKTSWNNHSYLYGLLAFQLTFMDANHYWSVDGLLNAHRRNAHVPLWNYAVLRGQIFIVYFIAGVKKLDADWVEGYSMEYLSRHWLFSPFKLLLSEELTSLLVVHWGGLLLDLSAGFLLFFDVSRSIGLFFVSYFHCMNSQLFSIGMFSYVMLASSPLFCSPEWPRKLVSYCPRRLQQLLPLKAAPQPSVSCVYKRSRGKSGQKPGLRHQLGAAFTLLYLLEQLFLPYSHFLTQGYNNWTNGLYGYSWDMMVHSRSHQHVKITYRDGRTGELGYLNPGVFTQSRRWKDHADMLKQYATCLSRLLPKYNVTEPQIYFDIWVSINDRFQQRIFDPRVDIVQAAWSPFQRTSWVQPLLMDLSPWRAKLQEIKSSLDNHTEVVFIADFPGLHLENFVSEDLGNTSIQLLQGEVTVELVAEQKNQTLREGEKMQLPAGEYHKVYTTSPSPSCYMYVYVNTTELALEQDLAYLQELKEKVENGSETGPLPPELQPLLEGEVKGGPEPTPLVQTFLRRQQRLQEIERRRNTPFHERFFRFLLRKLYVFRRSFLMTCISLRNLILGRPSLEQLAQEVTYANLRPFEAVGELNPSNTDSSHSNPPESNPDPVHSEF
Procedure: The compounds to be tested were reduced to their hydroquinone forms by the addition of 0.2 M DTT to a solution of the compounds in DMSO (giving a final v/v ratio of 1:3 DTT:DMSO) and overnight incubation in a water bath (37° C.).
In this assay a different microsomal preparation was used than the one described above. This microsomal preparation consists of microsomes prepared from Trichoplusia ni High Five cells that had had the cDNA for the human γ-carboxylase incorporated into their DNA. These microsomes were taken from stores that had been prepared as described by Houben, R. J., D. Jin, et al. (1999). “Osteocalcin binds tightly to the gamma-glutamylcarboxylase at a site distinct from that of the other known vitamin K-dependent proteins.” Biochem J 341 (Pt 2): 265-9.
Standard reaction mixtures contained 5 μl of microsomal preparation, 5 μl of 500 μM decarboxylated osteocalcin (d-OC) (except for the negative control tube), 25 μl of saturated ammonium sulphate solution, 5 μl of 5% PC/CHAPS. In addition to this, 1:3 (v/v) DMSO: 0.2 M DTT was added to the tubes (to take into account the fact that the compounds were dissolved in 1:3 DMSO: 0.2 M DTT) to give a total volume of 40 μl DMSO: 0.2 M DTT per tube. A solution of Buffer D was added to give all final tubes a uniform volume of 125 μl. The experiment was initiated by the addition of 10 μl of a 1:1 (v/v) mixture of vitamin K hydroquinone (final concentration of 220 μM) and NaH^14CO3 (final radioactivity of 5 μCi) to each tube, followed by a range of concentrations of the compounds.

[2] = tested on: Mice; test: Observed anticoagulant activity (bleeding) in treated mice; assay type: in vivo; conditions: single injection 15 μg/mouse/day intraperitoneally in 10% ethanol in saline
Procedure: Mice were treated with one compound of the present invention (4E)-6-(1,4-dihydro-2-methyl-1,4-dioxonaphthalen-3-yl)-4-methylhex-4-enoic acid (VIII) [also called NaQuinate herein] in the form of a single injection (15 μg/mouse/day) administered in 10% ethanol in saline injections intraperitoneally. Control mice received the carrier but not the NaQuinate active component.

| SMILES | IC50 [1] [µM] | bleeding compared with mice not treated (anticoagulant effect) [2] |
| --- | --- | --- |
| CC1=CC(=O)c2ccccc2C1=O [Vitamin K3 (III), menadione, reference compound] | 460 |  |
| COC(=O)C(C)CCC1=C(C)C(=O)c2ccccc2C1=O (stereo not shown) [KCAT-5C-Me (XIX)] | 514 |  |
| COC(=O)CC/C(C)=C/CC1=C(C)C(=O)C(OC)=C(OC)C1=O [QCAT-Me (XVIII)] | 534 |  |

Molecules with a lower IC50 [1], results first:

| IC50 [1] [µM] | SMILES | bleeding compared with mice not treated (anticoagulant effect) [2] |
| --- | --- | --- |
| 152 | CC1=C(C/C=C(\C)CCC(=O)O)C(=O)c2ccccc2C1=O [NaQuinate (VIII), (4E)-6-(1,4-dihydro-2-methyl-1,4-dioxonaphthalen-3-yl)-4-methylhex-4-enoic acid] | bleed out much more profusely |
| 358 | COC(=O)CCC(C)=CCC1=C(C)C(=O)c2ccccc2C1=O [NaQuinate-Me (VII)] |  |
| 340 | CC1=C(C/C=C(\C)C(=O)O)C(=O)c2ccccc2C1=O [KCAT-5C (XIV), (2E)-4-(1,4-dihydro-2-methyl-1,4-dioxonaphthalen-3-yl)-2-methylbut-2-enoic acid] |  |
